In experiment [1] the test system is peptidyl transferase A site of the 50S subunit. Put plainly: Kinetic characterization of A-site substrates in the peptidyl transferase fragment reaction. The class given is biochemical. The settings on record: fragment reaction conditions, P-site substrate N-Ac-Met-ACCACC. The procedure: Synthesis of 4-thio-dT-p-C-p-puromycin 5′-Dimethoxytrityl-Nα-trifluoroacetyl-puromycin was attached to alkylamine-derivatized controlled pore glass via a 2′-succinate linkage by standard methods. See, Atkinson and Smith, Solid Phase Synthesis of Oligodeoxyribonucleotides by the Phosphate-triester Method, in Oligonucleotide Synthesis: A Practical Approach, Oxford: IRL Press, pp. 35-81, 1985. 4-Thio-dT-p-C-p-Puromycin (s^4TCPm) was prepared by standard phosphoramidite chemistry using the solid-phase version of puromycin, and rC and 4-thio-dT phosphoramidites (Glen Research Corporation, Sterling, Va.). Deprotection was performed by treatment with 3:1 NH4OH:MeOH/50 mM NaSH overnight at 55° C. Subsequently, 40 equivalents of 1 M tetrabutylammonium fluoride (TBAF) in tetrahydrofuran (THF) were added to the dried product and incubated overnight at room temperature. Finally, 20 mM triethylamine-acetate (pH. 7.0) was added to the reaction mixture, loaded directly on a C18 HPLC column, and eluted with increasing concentrations of acetonitrile (CH3CN). Multiple peaks were collected and the purity of the products was analyzed on a 20% polyacrylamide/7M urea gel following 5′-[^32P]-end-labelling using polynucleotide kinase. Although two peaks appeared to be relatively pure by this analysis, only the slowest migrating peak on the HPLC had any crosslinking ability. Kinetic characterization of s^4TCPm was performed using the tRNA fragment N-Ac-Met-ACCACC, as a P-site substrate, using fragment reaction conditions, and paper electrophoresis analysis of the resulting product, s^4TCPm-N-Ac-Met, as described by Green and Noller, RNA, 1996, 2:1011-1021. This analysis was complicated by the apparent affinity of the compound for both the A and P sites at high concentrations. The P-site affinity may be attributable to wobble pairing between 4-thio-dT (which mimics C74 of tRNA) and G2252 of 23S rRNA. See, Samaha et al., Nature 1995, 377:309-314. […]

The test system of experiment [2] is B. stearothermophilus 70S ribosomes 23S rRNA. Put plainly: UV crosslinking of s^4TCPm to B. stearothermophilus ribosomes. The class given is binding. Particulars: compared with E. coli ribosomes. The procedure: (§1) Crosslinking of ribosomes by s^4TCPm: Tight-couple E. coli 70S ribosomes (2 μM) were incubated with 1.2 equivalents (2.4 μM) of gene 32 mRNA and of deacylated CF23 tRNA^Phe in 20 mM Tris, pH 7.5, 30 mM MgCl2, 50 mM NH4Cl, 6 mM 2-mercaptoethanol, and 10% MeOH. Saturating s^4TCPm (20 μM) (or [^32P]-s^4TCPm) was then added and the mixture was incubated at 37° C. for 10 minutes. Crosslinking of s^4TCPm to B. stearothermophilus 70S ribosomes was performed under similar conditions except with 30 mM Tris pH 7.5, 10 mM MgCl2, and 330 mM KCl. Complexes were exposed for varying lengths of time to a hand-held UV light source (UVL-56, Blak-Ray Lamp, UVP, Inc.—366 nm) at a distance of 3 cm. Intact rRNAs were phenol extracted, and resolved on 3.8% polyacrylamide/7 M urea gels. […] Analysis of the amount of substrate crosslinked to the r-proteins was determined as described by Breitmeyer and Noller, J. Mol. Biol., 1976, 101:297-306.
The position of the crosslinked A-site substrate was first localized with a series of RNase H digestions to the region between positions 2538 and 2593 of 23S rRNA. Assignment of the site of crosslinking to position G2553 was achieved using primer extension analysis. Because of the impaired ability of reverse transcriptase to read modified bases on the rRNA template, a major cDNA product was obtained terminating one nucleotide 3′ to the modified base. […]

Experiment [3] deals with 23S rRNA of E. coli tight-couple 70S ribosomes. The experiment can be described thus: UV crosslinking of s^4TCPm to ribosomes. The format is binding. The procedure:
as §1, with “cm.” for “cm. Intact rRNAs were phenol extracted, and resolved on 3.8% polyacrylamide/7 M urea gels.”
Crosslinking to the peptidyl transferase A site: To target binding of the crosslinking reagent specifically to the peptidyl transferase A site, the P site of E. coli tight-couple 70S ribosomes, programed with a shortened version of bacteriophage T4 gene 32 mRNA, was filled with deacylated tRNA^Phe, followed by binding of radioactively labeled [^32P]-s^4TCPm (FIG. 3B). […] Total RNA was prepared from the UV-irradiated ribosomal complexes by phenol extraction and analyzed on a 3.8% denaturing polyacrylamide gel. […]

In experiment [4] the test system is B. stearothermophilus 50S. The experiment can be described thus: Peptidyl transferase reactivity of the crosslinked B. stearothermophilus complex. The class given is biochemical. Particulars: minimal P-site substrates. The procedure: (§2) Kinetic analysis of crosslinked ribosomal complex: Crosslinked 50S subunits were separated from 30S subunits, gene 32 mRNA, and deacylated tRNA^Phe on 5%-20% sucrose gradients in 10 mM Tris-Cl, pH 7.5, 30 mM NH4Cl, and 1 mM MgCl2, and spun in an SW41 rotor at 19,000 rpm for 16 hours. Excess sucrose was removed and the buffer exchanged to 20 mM Tris, pH 7.5, 100 mM NH4Cl, and 5 mM MgCl2 using Centricon 100 tubes spun at 2600 rpm in an SS34 rotor. Peptidyl transferase assays were done as follows: crosslinked 50S subunit complexes (0.5 μM) were incubated in standard fragment reaction conditions (50 mM Tris, pH 8.3, 0.4 M potassium acetate (KOAc), 60 mM MgCl2, and 33% MeOH) with CACCA-(N-Ac-Phe) (2 μM). Aliquots were removed from the reaction at the indicated times, rRNAs phenol extracted, digested with RNase T1, and the fragments resolved on 24% polyacrylamide/6 M urea gels. […] When incubated with ribosomes at these concentrations, these antibiotics protect specific positions in 16S and 23S rRNA from chemical modification. […] Ribosomal RNAs were phenol extracted and analyzed on a 3.8% polyacrylamide—7 M urea gel. […]

Experiment [5] has as its system E. coli 50S subunit. Put plainly: Peptidyl transferase reactivity of the crosslinked complex. The format is biochemical. Particulars: CACCA-(N-Ac-Phe), fragment reaction conditions. Here is the method:
as §2

Experiment [6] has as its system 23S rRNA (2555 loop). Put plainly: Antibiotic inhibition of crosslinking by s^4TCPm to 23S rRNA. The class given is binding, E. coli. Particulars: antibiotics 0.1 mM (neomycin 0.01 mM, puromycin 1 mM); limiting [32P]-s^4TCPm. Here is the method:
FIGS. 5A and 5B are graphs that indicate antibiotic inhibition of crosslinking by s^4TCPm to 23S rRNA (5A) and of peptidyl transferase activity of crosslinked complex (s^4TCPm-50S) (5B). Values were normalized to 1.0 for reactions where no antibiotics were included.
Kinetic analysis of crosslinked ribosomal complex: Crosslinked 50S subunits were separated from 30S subunits, gene 32 mRNA, and deacylated tRNA^Phe on 5%-20% sucrose gradients in 10 mM Tris-Cl, pH 7.5, 30 mM NH4Cl, and 1 mM MgCl2, and spun in an SW41 rotor at 19,000 rpm for 16 hours. Excess sucrose was removed and the buffer exchanged to 20 mM Tris, pH 7.5, 100 mM NH4Cl, and 5 mM MgCl2 using Centricon 100 tubes spun at 2600 rpm in an SS34 rotor. Peptidyl transferase assays were done as follows: crosslinked 50S subunit complexes (0.5 μM) were incubated in standard fragment reaction conditions (50 mM Tris, pH 8.3, 0.4 M potassium acetate (KOAc), 60 mM MgCl2, and 33% MeOH) with CACCA-(N-Ac-Phe) (2 μM). Aliquots were removed from the reaction at the indicated times, rRNAs phenol extracted, digested with RNase T1, and the fragments resolved on 24% polyacrylamide/6 M urea gels. […] When incubated with ribosomes at these concentrations, these antibiotics protect specific positions in 16S and 23S rRNA from chemical modification. Antibiotic inhibition of crosslinking was performed using limiting [^32P]-s^4TCPm and a single time point (2 minutes) of exposure […] to long-wave length (366 nm) UV light (in the linear range of the reaction) under standard conditions. Ribosomal RNAs were phenol extracted and analyzed on a 3.8% polyacrylamide—7 M urea gel. Antibiotic inhibition of PT activity was performed with the fragment P-site substrate, CACCA-(N-Ac-Phe), supplied at a concentration of 0.3 μM; a single linear time point of 4 minutes was used for analysis.
While sparsomycin is known to stabilize P-site substrate binding, it also competes effectively for binding with puromycin in the A site. As sparsomycin is ineffective in the context of a covalently tethered puromycin substrate, but active in preventing the crosslinking of s^4TCPm, it seems likely that its mode of inhibition results primarily from its effect on A-site interactions. Puromycin had no effect on the peptidyl transferase activity of the crosslinked complex, consistent with the high effective concentration of the s^4TCPm substrate covalently bound in the A site. These effects of the various antibiotics on the activity of the 50S subunit-s^4TCPm complex provide further evidence that the synthetic substrate, s^4TCPm, is crosslinked to its physiologically correct binding site.

The test system of experiment [7] is crosslinked 50S subunit-s^4TCPm complex. Put plainly: Antibiotic inhibition of peptidyl transferase activity of the crosslinked complex (s^4TCPm-50S). The format is biochemical, E. coli. The settings on record: antibiotics 0.1 mM (neomycin 0.01 mM, puromycin 1 mM); CACCA-(N-Ac-Phe) 0.3 μM, 4 minutes.
Description: Kinetic analysis of crosslinked ribosomal complex: Crosslinked 50S subunits were separated from 30S subunits, gene 32 mRNA, and deacylated tRNA^Phe on 5%-20% sucrose gradients in 10 mM Tris-Cl, pH 7.5, 30 mM NH4Cl, and 1 mM MgCl2, and spun in an SW41 rotor at 19,000 rpm for 16 hours. Excess sucrose was removed and the buffer exchanged to 20 mM Tris, pH 7.5, 100 mM NH4Cl, and 5 mM MgCl2 using Centricon 100 tubes spun at 2600 rpm in an SS34 rotor. Peptidyl transferase assays were done as follows: crosslinked 50S subunit complexes (0.5 μM) were incubated in standard fragment reaction conditions (50 mM Tris, pH 8.3, 0.4 M potassium acetate (KOAc), 60 mM MgCl2, and 33% MeOH) with CACCA-(N-Ac-Phe) (2 μM). Aliquots were removed from the reaction at the indicated times, rRNAs phenol extracted, digested with RNase T1, and the fragments resolved on 24% polyacrylamide/6 M urea gels. […] Antibiotic inhibition of PT activity was performed with the fragment P-site substrate, CACCA-(N-Ac-Phe), supplied at a concentration of 0.3 μM; a single linear time point of 4 minutes was used for analysis.

Take `COc1ccc(CC(N)C(=O)NC2C(COP(=O)(O)OC3C(CO)OC(n4ccc(N)nc4=O)C3O)OC(n3cnc4c(N(C)C)ncnc43)C2O)cc1` (stereo not shown) [CPm, C-p-Puromycin]: the Km (usually the substrate concentration at which the rate is half of its maximum) in experiment [1] was about 10 µM.

Consider 4-thio-dT-p-C-p-Puromycin [s^4TCPm], for which the “crosslinking efficiency with B. stearothermophilus ribosomes” value in experiment [2] was “similarly efficient”. The Michaelis constant (Km) in experiment [1] was about 10 µM. For the same compound, in experiment [3], the “crosslinking to ribosomal proteins” value is reported as “absence of significant crosslinking”. Also, the “UV irradiation time at which the crosslinking reaction was complete” value in experiment [3] (366 nm UV) was 10 min. In experiment [4], the “peptidyl transferase kinetics slower than E. coli complex” value is on record as “ca. 10 fold”. Besides, the “crosslinked population reacted with P-site substrate” value in experiment [5] (2 minutes) is reported as “approximately 50%”; in experiment [5] (12 minutes) it was 85%.

In the case of `CO[C@@H]1[C@@H](O[C@@H]2O[C@H](C)[C@@H](O[C@H]3C[C@@](C)(O)[C@@H](OC(=O)CC(C)C)[C@H](C)O3)[C@H](N(C)C)[C@H]2O)[C@@H](CC=O)C[C@@H](C)C(=O)/C=C/[C@@H]2O[C@@H]2C[C@@H](C)OC(=O)C[C@H]1OC(C)=O` [carbomycin], in experiment [6], the “inhibition of crosslinking of s^4TCPm to the 2555 loop of 23S rRNA” value (shortened to “inhibition of crosslinking of s^4TCPm”) is given as “specifically inhibited”. For the same compound, in experiment [7], the “inhibition of peptidyl transferase reactivity of the crosslinked complex” value (shortened to “inhibition … of the crosslinked complex”) is “effectively inhibited”.

Regarding `CC[C@H]1OC(=O)[C@H](C)[C@@H](O[C@H]2C[C@@](C)(OC)[C@@H](O)[C@H](C)O2)[C@H](C)[C@@H](O[C@@H]2O[C@H](C)C[C@H](N(C)C)[C@H]2O)[C@](C)(O)C[C@@H](C)C(=O)[C@H](C)[C@@H](O)[C@]1(C)O` [erythromycin], the “inhibition of crosslinking of s^4TCPm” value in experiment [6] is “no effect”.

For `O=C(N[C@H](CO)[C@H](O)c1ccc([N+](=O)[O-])cc1)C(Cl)Cl` [chloramphenicol], in experiment [6], the “inhibition of crosslinking of s^4TCPm” value was “specifically inhibited”. Besides, the “inhibition … of the crosslinked complex” value in experiment [7] was “effectively inhibited”.

In the case of neomycin, in experiment [6], the “inhibition of crosslinking of s^4TCPm” value is listed as “no effect”.

For the compound `COc1ccc(C[C@H](N)C(=O)N[C@H]2[C@@H](O)[C@H](n3cnc4c(N(C)C)ncnc43)O[C@@H]2CO)cc1` [puromycin], the Km in experiment [1] is about 400 µM. Besides, in experiment [6], the “inhibition of crosslinking of s^4TCPm” value is “specifically inhibited”. In experiment [7], the “inhibition … of the crosslinked complex” value was “no effect”.

Regarding `CSC[S@+]([O-])C[C@H](CO)NC(=O)/C=C/c1c(C)[nH]c(=O)[nH]c1=O` [sparsomycin], the “inhibition of crosslinking of s^4TCPm” value in experiment [6] was “strongly inhibited”. Moreover, in experiment [7], the “inhibition … of the crosslinked complex” value is on record as “no inhibitory effect”.
